Reference: US5635391A, “Isolated DNA encoding a nitrilase polypeptide, hosts containing, and expression thereof optionally assisted by a E. coli GroE chaperone polypeptide” (priority 1992, dated 1997)

Assays:
E. coli TG1 pXL2158 = assay: Nitrilase activity of recombinant strain E. coli TG1 pXL2158; format: cell-based; details: no IPTG; whole cells; DW 0.24 g/l; 1 ml; pH 7.0; substrate 50 mM
Experimental: (§1) The activities of these strains, induced or non-induced, are measured on adiponitrile and 5-cyanovalerate at different pH values and are compared with the negative control strains: E. coli TG1, E. coli TG1 (pXL2035) and Pseudomonas putida G2081.
(§2) The cultures are carried out under the conditions described in Table 4. During the exponential growth phase, one of the two cultures of the recombinant strain is induced with 1 mM IPTG; after 2 h at 37° C., this culture is treated.
(§3) The conditions of the specific activity measurements and the results are collated in Table 5.
(§4) COMMON CONDITIONS: [substrate]=50 mM; T=25° C.; buffer 50 mM; kinetics over 90 min for 1 to 3 and over 120 min for 4 to 8.
(§5) ABBREVIATIONS: W=whole cells; S=sonicated cells; Ua=μmols of cyanovalerate produced/h; Ub=μmols of adipate produced/h; AdN=adiponitrile; CVA=5-cyanovalerate. DW=dry weight.

purified nitrilase = target: T1, purified nitrilase (Comamonas testosteroni, UniProt Q59329); assay: Relative activity of the purified nitrilase on various nitriles; format: biochemical, Comamonas testosteroni sp.; details: acetate buffer 10 mM, pH 4; substrate 10 mM; 25° C.
T1 construct: about 280 kDa oligomer of about 38 kDa subunits
T1 sequence (Q59329 entry or part of it): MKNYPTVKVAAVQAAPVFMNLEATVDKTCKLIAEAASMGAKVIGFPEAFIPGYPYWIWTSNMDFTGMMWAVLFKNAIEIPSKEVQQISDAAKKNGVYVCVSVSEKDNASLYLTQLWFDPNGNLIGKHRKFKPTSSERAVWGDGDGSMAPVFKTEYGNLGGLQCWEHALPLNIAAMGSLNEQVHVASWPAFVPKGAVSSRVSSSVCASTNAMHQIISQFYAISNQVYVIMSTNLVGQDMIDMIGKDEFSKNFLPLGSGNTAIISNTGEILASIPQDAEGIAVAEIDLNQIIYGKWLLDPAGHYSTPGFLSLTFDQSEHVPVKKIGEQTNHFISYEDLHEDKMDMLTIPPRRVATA
Experimental: The activities of the purified nitrilase were measured on adiponitrile, 5-cyanovaleramide, 5-cyanovaleric acid, benzonitrile, propionitrile and acrylonitrile.
COMMON CONDITIONS: acetate buffer=10 mM, pH 4; substrate=10 mM; volume=3 ml; T=25° C.; reaction time=1 or 3 h; proteins: from 5 to 30 μg/ml.

[1] = tested on: Comamonas testosteroni sp.; assay: Enzymatic activity of Comamonas testosteroni sp. cells on adiponitrile; format: cell-based; details: 52.3 mM adiponitrile, pH 7, 25° C.; 1 U = 1 μmol of product formed per minute
Experimental: A cellular residue containing 13.1 mg of dry weight of cells was suspended in 2 ml of a 52.3 mM solution of adiponitrile in 50 mM potassium phosphate buffer, pH 7. The reaction was carried out at 25° C., with shaking, and the kinetics were followed by sampling. 5-Cyanovaleramide, adipamide, 5-cyanovalerate, adipamate and adipate were determined on each sample by high performance liquid chromatography (HPLC). […] The respective rates of formation of cyanovalerate and adipate were greater than 0.45 and equal to 0.15 U/mg of dry weight of cells (1 U is equal to 1 μmol of product formed per minute).

E. coli (pXL2087) [2] = assay: Batch hydrolysis of adiponitrile with E. coli (pXL2087) in suspension; format: cell-based; details: pH 7, 25° C., cells 21 g/l
Experimental: 120 μl or 1068 μmol of adiponitrile were added at 25° C. and with magnetic stirring, at the reaction times 0, 1, 2, 3, 5, 6 and 7 h, to an initial volume of 5 ml of 50 mM phosphate buffer, pH 7, containing the strain E. coli (pXL2087) at an initial concentration of 21 g/l. The reaction was monitored analytically by taking 100 μl samples of the reaction volume every hour.
The mean activities calculated over 30 min after addition of the adiponitrile are collated in Table 6 below.

P. putida G2081 pDSK519 = assay: Nitrilase activity of control strain P. putida G2081 pDSK519; format: cell-based, Pseudomonas putida; details: no IPTG; whole cells; DW 0.3 g/l; 1 ml; pH 7.0; substrate 50 mM
Experimental: as §1, §2, §3, §4, §5

E. coli TG1 pXL2035,2158 = assay: Nitrilase activity of recombinant strain E. coli TG1 pXL2035,2158; format: cell-based; details: no IPTG; whole cells; DW 0.06 g/l; 1 ml; pH 7.0; substrate 50 mM
Experimental: as §1, §2, §3, §4, §5

E. coli TG1 = assay: Nitrilase activity of control strain E. coli TG1; format: cell-based; details: no IPTG, whole cells, DW 15.5 g/l, 1 ml, substrate 50 mM, 25° C.
Experimental: as §1, §2, §3, §4, §5

[3] = tested on: E. coli (pXL2087) immobilized on resin; assay: Hydrolysis of adiponitrile in a fixed bed reactor with immobilized E. coli (pXL2087); format: cell-based; details: 28° C., adiponitrile 50 mM, pH 7, flow rate 3.7 ml/h
Experimental: The half-life is determined in a continuously fed fixed bed reactor under the conditions indicated below:
T 28° C.; catalyst 0.5 g or 2 ml or 85 mg of cells (dry weight); [adiponitrile] 50 mM; phosphate buffer 50 mM, pH 7; flow rate 3.7±0.1 ml/h; column: diameter 1 cm, height 3 cm.
The initial activity of the cells was 1.5 μmol of adipate/h/mg of cells (dry weight). 66% of the initial activity is preserved after 32 days or 770 h.

E. coli TG1 pXL2035 = assay: Nitrilase activity of control strain E. coli TG1 pXL2035; format: cell-based; details: no IPTG; whole cells; DW 0.06 g/l; 1 ml; pH 7.0; substrate 50 mM
Experimental: as §1, §2, §3, §4, §5

E. coli (pXL2087) [4] = assay: Activity of immobilized and free E. coli (pXL2087) cells on adiponitrile; format: cell-based; details: 25° C., pH 7, 50 mM adiponitrile
Experimental: The cells were fixed according to the following protocol:
The gram of cells was suspended in the polyazetidine solution. After homogenization, the resin was poured into the cell suspension. The whole was stirred with a spatula and then left to dry for 18 h, open to the air, under a hood. 4 ml or 1.3 g of biocatalyst were thus collected. The activities of the immobilized and free cells were determined at 25° C. and pH 7 on a 50 mM solution of adiponitrile. They are respectively 30 and 110 μmol of […]/h/mg of cells DW, from which a fixing yield of 26% is deduced.

E. coli TG1 pXL2087 = assay: Nitrilase activity of recombinant strain E. coli TG1 pXL2087; format: cell-based; details: substrate 50 mM; for Activity Ua: DW 0.3 g/l, pH 4.2
Experimental: as §1, §2, §3, §4, §5

Structure (SMILES): N#CCCCCC#N [Adiponitrile, adiponitrile]
- Activity Ua (E. coli TG1 pXL2158): 270 μmols of cyanovalerate produce
- RELATIVE ACTIVITY (purified nitrilase): 100%
- rate of formation of adipate [1]: 0.15 U/mg of dry weight of cells
- rate of formation of cyanovalerate [1]: greater than 0.45 U/mg of dry weight of cells
- SPECIFIC ACTIVITY (mean over 30 min after addition of adiponitrile) (E. coli (pXL2087) [2]; reaction time 0.5 h): 16 μmol of adipate/h x mg of dry cells
- SPECIFIC ACTIVITY (mean over 30 min after addition of adiponitrile) (E. coli (pXL2087) [2]; reaction time 2.5 h): 15 μmol of adipate/h x mg of dry cells
- SPECIFIC ACTIVITY (mean over 30 min after addition of adiponitrile) (E. coli (pXL2087) [2]; reaction time 5.5 h): 11 μmol of adipate/h x mg of dry cells
- SPECIFIC ACTIVITY (mean over 30 min after addition of adiponitrile) (E. coli (pXL2087) [2]; reaction time 6.5 h): 11 μmol of adipate/h x mg of dry cells
- SPECIFIC ACTIVITY (mean over 30 min after addition of adiponitrile) (E. coli (pXL2087) [2]; reaction time 7.7 h): 15 μmol of adipate/h x mg of dry cells
- Activity Ua (P. putida G2081 pDSK519): 0 μmols of cyanovalerate produce
- Activity Ua (E. coli TG1 pXL2035,2158): 1500 μmols of cyanovalerate produce
- Activity Ub (E. coli TG1; pH 5.2): 0 μmols of adipate produced/h
- Activity Ub (E. coli TG1; pH 7.0): 0 μmols of adipate produced/h
- initial activity of the cells [3]: 1.5 μmol of adipate/h/mg of cells (dry weight)
- Activity Ua (E. coli TG1 pXL2035): 0 μmols of cyanovalerate produce
- Activity Ub (E. coli TG1 pXL2035): 0 μmols of adipate produced/h
- activity of the free cells (E. coli (pXL2087) [4]): 110 μmol of 2-cyanovalerate/h/mg of cells DW
- activity of the immobilized cells (E. coli (pXL2087) [4]): 30 μmol of 2-cyanovalerate/h/mg of cells DW
- Activity Ub (E. coli TG1 pXL2087; +IPTG, sonicated cells, DW 1.4 g/l, 2 ml, pH 6.2): 17 μmols of adipate produced/h
- Activity Ub (E. coli TG1 pXL2087; +IPTG, sonicated cells, DW 1.4 g/l, 2 ml, pH 7.0): 10 μmols of adipate produced/h
- Activity Ua (E. coli TG1 pXL2087; +IPTG, whole cells, 1 ml): 159 μmols of cyanovalerate produce
- Activity Ub (E. coli TG1 pXL2087; +IPTG, whole cells, DW 1.4 g/l, 1 ml, pH 4.3): 38 μmols of adipate produced/h
- Activity Ub (E. coli TG1 pXL2087; +IPTG, whole cells, DW 1.4 g/l, 2 ml, pH 6.2): 18 μmols of adipate produced/h
- Activity Ub (E. coli TG1 pXL2087; +IPTG, whole cells, DW 1.4 g/l, 2 ml, pH 7.0): 11 μmols of adipate produced/h
- Activity Ub (E. coli TG1 pXL2087; no IPTG, sonicated cells, DW 1.0 g/l, 1 ml, pH 6.2): 3 μmols of adipate produced/h
- Activity Ub (E. coli TG1 pXL2087; no IPTG, sonicated cells, DW 1.0 g/l, 1 ml, pH 7.0): 4 μmols of adipate produced/h
- Activity Ua (E. coli TG1 pXL2087; no IPTG, whole cells, 1 ml): 75 μmols of cyanovalerate produce
- Activity Ub (E. coli TG1 pXL2087; no IPTG, whole cells, DW 1.2 g/l, 2 ml, pH 4.3): 16 μmols of adipate produced/h
- Activity Ub (E. coli TG1 pXL2087; no IPTG, whole cells, DW 1.2 g/l, 2 ml, pH 6.2): 11 μmols of adipate produced/h
- Activity Ub (E. coli TG1 pXL2087; no IPTG, whole cells, DW 1.2 g/l, 2 ml, pH 7.0): 3.4 μmols of adipate produced/h
